Values belong to the molecule of their own block, whether it stands above or below them.
Assays:
[1] = target: T1, 4-hydroxyphenylpyruvate dioxygenase (Sus scrofa, UniProt Q02110); test: The inhibitory activity on pig liver 4-hydroxyphenylpyruvate dioxygenase (HPPD) was evaluated.
[2] = target: T1, 4-hydroxyphenylpyruvate dioxygenase; test: Inhibitory activity on pig liver 4-hydroxyphenylpyruvate dioxygenase (HPPD) was evaluated
[3] = target: 4-hydroxyphenylpyruvate dioxygenase (Sus scrofa) (UniProt Q02110); test: Compound was evaluated for complete competitive inhibition of 4-hydroxyphenylpyruvate dioxygenase (HPPD)
Sequence of 4-hydroxyphenylpyruvate dioxygenase (Sus scrofa) (Q02110 2-393 limits assumed): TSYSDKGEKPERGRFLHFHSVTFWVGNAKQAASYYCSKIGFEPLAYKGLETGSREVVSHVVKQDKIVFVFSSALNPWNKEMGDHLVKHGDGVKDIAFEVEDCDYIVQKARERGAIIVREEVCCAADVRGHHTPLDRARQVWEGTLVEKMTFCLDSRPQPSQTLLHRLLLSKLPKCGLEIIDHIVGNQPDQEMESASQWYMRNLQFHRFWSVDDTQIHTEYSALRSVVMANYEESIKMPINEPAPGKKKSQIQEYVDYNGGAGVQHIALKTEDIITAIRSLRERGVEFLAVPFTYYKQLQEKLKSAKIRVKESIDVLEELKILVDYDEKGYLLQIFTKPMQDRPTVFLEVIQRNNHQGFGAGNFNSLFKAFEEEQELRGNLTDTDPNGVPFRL

[4] = target: T1, 4-hydroxyphenylpyruvate dioxygenase; test: Compound was evaluated for competitive inhibition of 4-hydroxyphenylpyruvate dioxygenase (HPPD) (complete inhibition was observed at a concentration of 0.5-1.0 mM)

T1 sequence (Q02110 whole entry): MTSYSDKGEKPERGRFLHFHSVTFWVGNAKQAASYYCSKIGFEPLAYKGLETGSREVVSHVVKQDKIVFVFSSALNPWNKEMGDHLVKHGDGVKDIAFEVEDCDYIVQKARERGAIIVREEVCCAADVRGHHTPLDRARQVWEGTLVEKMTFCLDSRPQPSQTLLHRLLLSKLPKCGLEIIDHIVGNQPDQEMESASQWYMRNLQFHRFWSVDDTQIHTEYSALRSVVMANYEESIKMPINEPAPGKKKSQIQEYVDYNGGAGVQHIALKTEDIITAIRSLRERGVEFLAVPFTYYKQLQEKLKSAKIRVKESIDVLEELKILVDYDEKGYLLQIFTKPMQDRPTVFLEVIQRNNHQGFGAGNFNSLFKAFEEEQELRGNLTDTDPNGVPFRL

IC50 [1]: 40 nM
Compound: O=C1CCCC(=O)C1=C(O)c1ccc(C(F)(F)F)cc1[N+](=O)[O-]

Compound: CS(=O)(=O)c1ccc(C(O)=C2C(=O)CCCC2=O)c(Cl)c1
IC50 [2]: 45 nM

Compound: CCC/C(=N\OCC)C1=C(O)CC(CC(C)SCC)CC1=O (centres undefined) [SETHOXYDIM]
IC100 [3]: 1 mM
Ki [4]: 300000 nM

— ChEMBL document CHEMBL1131943, “Inhibition of 4-hydroxyphenylpyruvate dioxygenase by sethoxydim, a potent inhibitor of acetyl-coenzyme A carboxylase” (Bioorg Med Chem Lett, 1999)
